Source: patent US9540376B2, “Hexahydrodiazepinoquinolines carrying a substituted alkyl radical” (priority 2014, dated 2017)

What was measured:
Assay type in all cases: cell-based
5-HT2C receptor = target: T1, 5-HT2C receptor (Homo sapiens, UniProt P28335); test: Human 5-HT2C functional assay (beta-arrestin2 recruitment, U2OS_HTR2C_β-Arrestin cells); conditions: for EC50: potency in functional assay, beta-arrestin2 recruitment, 1.5 h incubation; for Emax: read-out: % efficacy (5-HT2C), relative efficacy vs 10 μM 5-HT or maximal 5-HT effect (100%); for % efficacy (5-HT2C): relative efficacy vs 10 μM 5-HT or maximal 5-HT effect (100%)
T1 construct: host or cells: U2OS
Protocol: 1. Human 5-HT2C Functional Assay
The functional activity of compounds of formula I was assayed by incubation with U2OS_HTR2C_β-Arrestin cells (DiscoverX, 93-0289C3) to induce beta-arrestin2 recruitment to the 5-HT2C receptor. The agonist-induced recruitment and proximity of the receptor and beta-arrestin2 leads to complementation and formation of active β-galactosidase. The enzyme complementation results in enzyme activity, which is measured following the termination of the agonist incubation using DiscoveRx's detection reagent, which contains a chemiluminescent substrate which produces a high intensity signal. Cells were plated and a medium-change to a 1% serum containing medium was performed 24 h later. The next day, test compounds were added and incubated for 1.5 h before addition of detection reagent.
The response produced was measured and compared with the response produced by 10 [mu]M 5-HT or the maximal effect induced by 5-HT (defined as 100%) to which it was expressed as a percentage response (relative efficacy).

human 5-HT2B receptor = target: T2, human 5-HT2B receptor (Homo sapiens, UniProt P41595); test: Human 5-HT2B functional assay (calcium mobilisation in CHO-FlpIn cells); conditions: for EC50: potency in functional assay, agonism (first addition), calcium mobilisation; for Selectivity (based on agonism) EC50 5-HT2B/EC50 5-HT2C: ratio EC50 5-HT2B/EC50 5-HT2C; for Emax: read-out: % efficacy (5-HT2B), relative efficacy vs maximal effect of serotonin alone (100%)
T2 construct: expressed in transfected cells; host or cells: CHO-FlpIn
Protocol: 3. Human 5-HT2B Functional Assay
Cells were seeded into sterile black 384-well plates with clear bottom at 30,000 cells/well in a volume of 25 μl and grown overnight at 37° C., in 5% CO2 in tissue culture medium (“CHO-S-SFM II” by Invitrogen), containing 1% dialysed FCS and 50 μg/ml gentamicin (Invitrogen). On the next morning, medium was replaced by a serum free version of the same tissue culture medium for a further incubation for 4 hours at 37° C. and in 5% CO2. Cells were then loaded with a fluorescent calcium-sensitive dye in the presence of 0.07% probenecid for an hour at 37° C., according to the manufacturer's protocol (Ca5-Assay Kit, Molecular Devices), followed by an additional 60 min incubation at room temperature. Serial compound dilutions (final concentrations of 10^−10 to 10^−5M, prepared in HBSS+50 mM HEPES) were first added to the cells alone (“first addition” to assess agonism on the 5-HT2B receptor), then after 8 min, serotonin was added to the same wells at a final concentration of 10^−8 M (“second addition” to see potential antagonistic effect) and the maximal calcium response was determined using a FLIPR® Tetra instrument (Molecular Devices) in each of the two steps. The relative efficacy of the compounds was calculated as a percentage of the maximal effect induced by serotonin alone (defined as 100%). To determine EC50/IC50 values, concentration-response curves were fitted using a four-parameter logistic equation (IDBS Biobook™). Kb values were calculated from IC50 values, according to Cheng & Prusoff.

human 5-HT2A receptor = target: T3, human 5-HT2A receptor (Homo sapiens, UniProt P28223); test: Human 5-HT2A functional assay (calcium mobilisation in CHO-K1 cells); conditions: for EC50: potency in functional assay, agonism (first addition), calcium mobilisation; for Emax: CHO-K1, read-out: % efficacy (5-HT2A); for Selectivity (based on agonism) EC50 5-HT2A/EC50 5-HT2C: ratio EC50 5-HT2A/EC50 5-HT2C
T3 construct: expressed in transfected cells; host or cells: CHO-K1
Protocol: 2. Human 5-HT2A Functional Assay
Cells were seeded into sterile black 384-well plates with clear bottom at 25,000 cells/well in a volume of 25 μl and grown for 5-6 hours at 37° C., in 5% CO2 in tissue culture medium (“Ultra CHO” by LONZA), containing 1% dialysed FCS and 50 μg/ml gentamicin (Invitrogen). After this incubation, medium was replaced by a serum free version of the same tissue culture medium followed by incubation overnight at 37° C. and in 5% CO2. Cells were then loaded with a fluorescent calcium-sensitive dye in the presence of 0.07% probenecid for an hour at 37° C., according to the manufacturer's protocol (Ca5-Assay Kit, Molecular Devices), followed by an additional 60 min incubation at room temperature. […] The relative efficacy of the compounds was calculated as a percentage of the maximal effect induced by serotonin alone (defined as 100%). To determine EC50/IC50 values, concentration-response curves were fitted using a four-parameter logistic equation (IDBS Biobook™). Kb values were calculated from IC50 values, according to Cheng & Prusoff.

T1 sequence (P28335 33-458): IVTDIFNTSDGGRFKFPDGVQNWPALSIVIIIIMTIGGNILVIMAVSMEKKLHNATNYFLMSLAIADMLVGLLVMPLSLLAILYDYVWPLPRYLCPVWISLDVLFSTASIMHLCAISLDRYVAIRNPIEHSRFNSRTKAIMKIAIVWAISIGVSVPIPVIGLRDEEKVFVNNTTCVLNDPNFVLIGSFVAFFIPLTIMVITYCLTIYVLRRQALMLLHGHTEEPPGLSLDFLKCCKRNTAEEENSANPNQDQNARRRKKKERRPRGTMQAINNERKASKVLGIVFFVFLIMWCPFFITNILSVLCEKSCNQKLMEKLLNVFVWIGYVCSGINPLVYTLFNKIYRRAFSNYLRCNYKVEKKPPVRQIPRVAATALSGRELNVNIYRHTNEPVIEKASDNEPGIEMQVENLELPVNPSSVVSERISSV
T1 sequence (P32121 whole entry partner): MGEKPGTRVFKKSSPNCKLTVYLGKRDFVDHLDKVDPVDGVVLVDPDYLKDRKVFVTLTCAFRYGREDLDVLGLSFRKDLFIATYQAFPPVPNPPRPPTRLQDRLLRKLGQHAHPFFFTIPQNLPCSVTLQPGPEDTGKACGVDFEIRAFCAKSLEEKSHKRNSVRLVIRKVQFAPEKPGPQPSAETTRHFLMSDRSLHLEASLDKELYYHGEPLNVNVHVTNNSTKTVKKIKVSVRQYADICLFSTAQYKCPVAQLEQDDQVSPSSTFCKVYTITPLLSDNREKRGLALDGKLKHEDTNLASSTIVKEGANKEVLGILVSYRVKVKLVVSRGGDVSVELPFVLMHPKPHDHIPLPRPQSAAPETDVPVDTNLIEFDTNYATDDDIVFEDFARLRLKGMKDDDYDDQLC
T2 sequence (P41595 whole entry): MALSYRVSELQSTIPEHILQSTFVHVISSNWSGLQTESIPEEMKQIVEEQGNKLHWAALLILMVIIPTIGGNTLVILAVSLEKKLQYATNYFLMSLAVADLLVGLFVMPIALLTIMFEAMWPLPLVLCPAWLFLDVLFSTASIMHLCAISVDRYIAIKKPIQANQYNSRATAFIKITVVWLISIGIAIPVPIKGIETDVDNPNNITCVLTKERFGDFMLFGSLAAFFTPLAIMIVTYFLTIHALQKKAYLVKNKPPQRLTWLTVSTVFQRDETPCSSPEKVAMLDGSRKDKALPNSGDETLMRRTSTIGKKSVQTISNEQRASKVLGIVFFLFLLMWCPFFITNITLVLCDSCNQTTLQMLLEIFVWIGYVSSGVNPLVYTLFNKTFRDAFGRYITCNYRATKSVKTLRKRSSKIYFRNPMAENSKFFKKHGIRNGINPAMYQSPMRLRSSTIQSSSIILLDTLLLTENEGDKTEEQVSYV
T3 sequence (P28223 whole entry): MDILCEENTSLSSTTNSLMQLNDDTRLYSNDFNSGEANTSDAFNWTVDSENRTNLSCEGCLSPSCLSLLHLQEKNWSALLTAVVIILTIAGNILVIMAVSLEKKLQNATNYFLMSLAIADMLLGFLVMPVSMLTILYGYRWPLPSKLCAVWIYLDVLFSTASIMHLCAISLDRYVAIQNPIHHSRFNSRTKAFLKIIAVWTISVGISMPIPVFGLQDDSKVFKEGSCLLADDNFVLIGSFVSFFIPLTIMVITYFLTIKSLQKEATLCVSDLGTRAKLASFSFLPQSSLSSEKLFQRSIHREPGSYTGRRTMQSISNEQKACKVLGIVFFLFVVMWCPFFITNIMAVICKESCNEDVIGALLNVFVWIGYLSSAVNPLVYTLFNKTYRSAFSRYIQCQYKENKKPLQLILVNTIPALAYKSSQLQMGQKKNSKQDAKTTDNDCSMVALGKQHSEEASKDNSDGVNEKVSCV

Structure (SMILES): CC1CNCc2cccc3c2N1CCC3C(F)(F)F (single isomer, unassigned) [Isomer 4.A, 4-methyl-8-(trifluoromethyl)-2,3,4,6,7,8-hexahydro-1H-[1,4]diazepino[6,7,1-ij]quinoline]
- EC50 (5-HT2C receptor): < 20 nM
- Emax (5-HT2C receptor): 101%
- EC50 (human 5-HT2B receptor): > 10000 nM
- EC50 (human 5-HT2A receptor): > 10000 nM

Structure (SMILES): CC1CNCc2cccc3c2N1CCC3C(F)(F)F (single isomer, unassigned) [Isomer 4.B, 4-methyl-8-(trifluoromethyl)-2,3,4,6,7,8-hexahydro-1H-[1,4]diazepino[6,7,1-ij]quinoline]
- EC50 (5-HT2C receptor): 20 to 200 nM
- % efficacy (5-HT2C) (5-HT2C receptor; listed as 4.B): 87%
- EC50 (human 5-HT2B receptor): > 10000 nM
- EC50 (human 5-HT2A receptor; listed as 4.B): > 10000 nM

Structure (SMILES): CC1CNCc2cccc3c2N1CCC3C(F)(F)F (single isomer, unassigned) [Isomer 4.C, 4-methyl-8-(trifluoromethyl)-2,3,4,6,7,8-hexahydro-1H-[1,4]diazepino[6,7,1-ij]quinoline]
- EC50 (5-HT2C receptor): < 20 nM
- % efficacy (5-HT2C) (5-HT2C receptor; listed as 4.C): 101%
- EC50 (human 5-HT2B receptor): 20 to 200 nM
- Selectivity (based on agonism) EC50 5-HT2B/EC50 5-HT2C (human 5-HT2B receptor; listed as 4.C): 12
- Emax (human 5-HT2B receptor): 44%
- Emax (human 5-HT2A receptor): 24%
- EC50 (human 5-HT2A receptor): 20 to 200 nM
- Selectivity (based on agonism) EC50 5-HT2A/EC50 5-HT2C (human 5-HT2A receptor): 2

Structure (SMILES): CC1CNCc2cccc3c2N1CCC3C(F)(F)F (single isomer, unassigned) [Isomer 4.D, 4-methyl-8-(trifluoromethyl)-2,3,4,6,7,8-hexahydro-1H-[1,4]diazepino[6,7,1-ij]quinoline]
- EC50 (5-HT2C receptor): 200 to 1000 nM
- % efficacy (5-HT2C) (5-HT2C receptor; listed as 4.D): 86%
- EC50 (human 5-HT2B receptor): 200 to 1000 nM
- Selectivity (based on agonism) EC50 5-HT2B/EC50 5-HT2C (human 5-HT2B receptor; listed as 4.D): 2
- % efficacy (5-HT2B) (human 5-HT2B receptor; relative efficacy vs maximal effect of serotonin alone (100%)): 30%
- EC50 (human 5-HT2A receptor; listed as 4.D): > 10000 nM

Structure (SMILES): CC1CNCc2cccc3c2N1CCC3C(F)F (single isomer, unassigned) [Isomer 5.A, 8-(difluoromethyl)-4-methyl-2,3,4,6,7,8-hexahydro-1H-[1,4]diazepino[6,7,1-ij]quinoline]
- EC50 (5-HT2C receptor): < 20 nM
- % efficacy (5-HT2C) (5-HT2C receptor; listed as 5.A): 109%
- EC50 (human 5-HT2B receptor): 200 to 1000 nM
- Selectivity (based on agonism) EC50 5-HT2B/EC50 5-HT2C (human 5-HT2B receptor): 20
- Emax (human 5-HT2B receptor): 36%
- Emax (human 5-HT2A receptor): 21%
- EC50 (human 5-HT2A receptor): < 20 nM
- Selectivity (based on agonism) EC50 5-HT2A/EC50 5-HT2C (human 5-HT2A receptor): 0.5

Structure (SMILES): CC1CNCc2cccc3c2N1CCC3C(F)F (single isomer, unassigned) [Isomer 5.B, 8-(difluoromethyl)-4-methyl-2,3,4,6,7,8-hexahydro-1H-[1,4]diazepino[6,7,1-ij]quinoline]
- EC50 (5-HT2C receptor): 20 to 200 nM
- % efficacy (5-HT2C) (5-HT2C receptor; listed as 5.B): 110%
- EC50 (human 5-HT2B receptor): > 10000 nM
- EC50 (human 5-HT2A receptor): > 10000 nM

Structure (SMILES): CC1CNCc2cccc3c2N1CCC3C(F)F (single isomer, unassigned) [Isomer 5.C, 8-(difluoromethyl)-4-methyl-2,3,4,6,7,8-hexahydro-1H-[1,4]diazepino[6,7,1-ij]quinoline]
- EC50 (5-HT2C receptor): 200 to 1000 nM
- % efficacy (5-HT2C) (5-HT2C receptor; listed as 5.C): 89%
- EC50 (human 5-HT2B receptor): > 10000 nM
- EC50 (human 5-HT2A receptor; listed as 5.C): > 10000 nM

Structure (SMILES): CC1CNCc2cccc3c2N1CCC3C(F)F (single isomer, unassigned) [Isomer 5.D, 8-(difluoromethyl)-4-methyl-2,3,4,6,7,8-hexahydro-1H-[1,4]diazepino[6,7,1-ij]quinoline]
- EC50 (5-HT2C receptor): 200 to 1000 nM
- % efficacy (5-HT2C) (5-HT2C receptor; listed as 5.D): 84%
- EC50 (human 5-HT2B receptor): > 10000 nM
- EC50 (human 5-HT2A receptor; listed as 5.D): > 10000 nM

Structure (SMILES): CC1CNCc2cccc3c2N1CCC3C(F)(F)F (centres unmarked) [Example 4, 4-Methyl-8-(trifluoromethyl)-2,3,4,6,7,8-hexahydro-1H-[1,4]diazepino[6,7,1-ij]quinoline]
- EC50 (5-HT2C receptor): 20 to 200 nM
- Emax (5-HT2C receptor): 104%
- EC50 (human 5-HT2B receptor): > 10000 nM
- EC50 (human 5-HT2A receptor): > 10000 nM

Structure (SMILES): CC1CNCc2cccc3c2N1CCC3C(F)F (centres unmarked) [Example 5, 8-(Difluoromethyl)-4-methyl-2,3,4,6,7,8-hexahydro-1H-[1,4]diazepino[6,7,1-ij]quinoline]
- EC50 (5-HT2C receptor): 20 to 200 nM
- Emax (5-HT2C receptor): 95%
- EC50 (human 5-HT2B receptor): > 10000 nM
- EC50 (human 5-HT2A receptor): > 10000 nM

Structure (SMILES): CC1CNCc2cccc3c2N1CCC3CF (centres unmarked) [Example 7, 8-(Fluoromethyl)-4-methyl-2,3,4,6,7,8-hexahydro-1H-[1,4]diazepino[6,7,1-ij]quinoline]
- EC50 (5-HT2C receptor): 20 to 200 nM
- Emax (5-HT2C receptor): 107%
- EC50 (human 5-HT2B receptor): > 10000 nM
- EC50 (human 5-HT2A receptor): > 10000 nM

Structure (SMILES): CCOCC1CCN2c3c(cccc31)CNCC2C (centres unmarked) [Example 8, 8-(Ethoxymethyl)-4-methyl-2,3,4,6,7,8-hexahydro-1H-[1,4]diazepino[6,7,1-ij]quinoline]
- EC50 (5-HT2C receptor): 200 to 1000 nM
- Emax (5-HT2C receptor): 93%
- EC50 (human 5-HT2B receptor): > 10000 nM
- EC50 (human 5-HT2A receptor): > 10000 nM

Structure (SMILES): COCC1CCN2c3c(cccc31)CNCC2C (centres unmarked) [Example 9, 8-(Methoxymethyl)-4-methyl-2,3,4,6,7,8-hexahydro-1H-[1,4]diazepino[6,7,1-ij]quinoline]
- EC50 (5-HT2C receptor): 200 to 1000 nM
- Emax (5-HT2C receptor): 82%
- EC50 (human 5-HT2B receptor): > 10000 nM
- EC50 (human 5-HT2A receptor): > 10000 nM
